Tested on: Karpas cells
Assay: Detection of surface protein combinations of the protein network on untreated (V1) and actinonin-treated (V2) Karpas cells
Type: cell-based
Details: for V2 no. of cells In 1/1OOO / V2 No. of cells In 1/1000: actinonin-treated Karpas cells (V2)
Excerpt: Principally, detecting of the surface protein combinations may comprise procedural steps of an automated method for determining molecular classes, molecular groups or molecular parts in a solid or liquid object according to DE 197 09 348 C. In these steps, surface proteins may be examined and measured in one and the same object, i.e. in a sample of immune cells and/or tumor cells for example, by sequentially applying reagent solutions Yn (n=1,2,3, . . . N) by means of an automated apparatus, said procedural steps being: I. taking a first reagent solution Y1 from a vessel containing the reagent solution, II. applying said reagent solution Y1 to the object which is on an object slide, III. allowing the reagent solution to react for an automatically set period of time, IV. recording at least one individual labeling pattern of the object previously labeled with said first reagent solution Y1, V. repeating steps I-IV by applying said first reagent solution Y1 or a second reagent solution Y2 or a mixture of said first and second reagent solutions, and VI. repeating steps I to V with further reagent solutions Yn (n=2,3, . . . N) or a mixture thereof and whereby the labeling distribution patterns obtained in each cycle of the method are turned into a complex molecular combination pattern of the object to be examined by computer-aided image overlay. From this combination pattern, information may be gained on the presence of the above mentioned proteins, thus also allowing detection of the surface protein combinations, if the reagent solutions used contain labeled substances directed against the proteins in question. In numerous examinations, it was possible to identify the 30 cell surface proteins already listed above which belong to a specific protein network controlling the early polarization stages of tumor cells and immune cells. In a further examination, surface protein combinations of this protein network of Karpas cells were detected, both in untreated form and after treatment with the aminopeptidase inhibitor actinonin. For this purpose, two groups V1 and V2 of Karpas cells were formed, with the cells of group Vl remaining untreated, while the cells of group V2 were treated with actinonin. Table 2 lists those surface protein combinations which are present both in the actinonin-treated cells and in the untreated cells. However, this table and the further tables 3 and 4 only give examples of 18 of the 30 proteins, with the detected proteins being designated 1 and the non-detected proteins being designated 0. The proteins are continuously numbered 1 to 18, with the nomenclature being notable from table 1. [table] The cell numbers stated in tables 2 to 4 refer to each 1,000 cells examined in groups V1 and V2. Table 3 lists the surface protein combinations which only occur in the untreated Karpas cells and are never found in the actinonin-treated Karpas cells. The number of protein combinations listed in this table 3 amounts to 131. Finally, table 4 exclusively lists those surface protein combinations which occur exclusively in the actinonin-treated Karpas cells. It may be gathered from tables 2 to 4 that, if one examines merely 18 proteins of the 30 proteins, a total of 394 different surface protein combinations will occur, with a total of 334 different combinations occurring in the untreated cells and a total of 263 different combinations being detected in the treated cells.

CCCCC[C@H](CC(=O)NO)C(=O)N[C@H](C(=O)N1CCC[C@H]1CO)C(C)C [actinonin]
0.0 1/1000: V2 No. of cells In 1/1000 (surface protein combination No. 3, binary code proteins 1-18: 011100011101011100, untreated V1: 0.8) | V2 No. of cells In 1/1000 (surface protein combination No. 4, binary code proteins 1-18: 101000010011011000, untreated V1: 0.7) | V2 No. of cells In 1/1000 (surface protein combination No. 5, binary code proteins 1-18: 001000110101011000, untreated V1: 0.7) | V2 No. of cells In 1/1000 (surface protein combination No. 6, binary code proteins 1-18: 000100000000001100, untreated V1: 0.7) | V2 No. of cells In 1/1000 (surface protein combination No. 7, binary code proteins 1-18: 101000011111011000, untreated V1: 0.6) | V2 No. of cells In 1/1000 (surface protein combination No. 8, binary code proteins 1-18: 001000000010000000, untreated V1: 0.6) | V2 No. of cells In 1/1000 (surface protein combination No. 9, binary code proteins 1-18: 111100011101011100, untreated V1: 0.5) | V2 No. of cells In 1/1000 (surface protein combination No. 10, binary code proteins 1-18: 001100011101000000, untreated V1: 0.5) | V2 No. of cells In 1/1000 (surface protein combination No. 11, binary code proteins 1-18: 000000011111001000, untreated V1: 0.5) | V2 No. of cells In 1/1000 (surface protein combination No. 12, binary code proteins 1-18: 111000011101011100, untreated V1: 0.4) | V2 No. of cells In 1/1000 (surface protein combination No. 13, binary code proteins 1-18: 110000001100001000, untreated V1: 0.4) | V2 No. of cells In 1/1000 (surface protein combination No. 14, binary code proteins 1-18: 101100011111001000, untreated V1: 0.4) | V2 No. of cells In 1/1000 (surface protein combination No. 15, binary code proteins 1-18: 101000010001011000, untreated V1: 0.4) | V2 No. of cells In 1/1000 (surface protein combination No. 16, binary code proteins 1-18: 100100000100011000, untreated V1: 0.4) | V2 No. of cells In 1/1000 (surface protein combination No. 17, binary code proteins 1-18: 100100000001001100, untreated V1: 0.4) | V2 No. of cells In 1/1000 (surface protein combination No. 18, binary code proteins 1-18: 100000000000011000, untreated V1: 0.4)
0.1 1/1OOO: V2 no. of cells In 1/1OOO (protein code No. 149, proteins 1-18 binary 000100010111001000) | V2 no. of cells In 1/1OOO (protein code No. 150, proteins 1-18 binary 000000010101011000) | V2 no. of cells In 1/1OOO (protein code No. 162, proteins 1-18 binary 011100011101011000) | V2 no. of cells In 1/1OOO (protein code No. 163, proteins 1-18 binary 011000011100011100) | V2 no. of cells In 1/1OOO (protein code No. 164, proteins 1-18 binary 010000001101001000) | V2 no. of cells In 1/1OOO (protein code No. 165, proteins 1-18 binary 001000010001001100) | V2 no. of cells In 1/1OOO (protein code No. 174, proteins 1-18 binary 111100001100011100) | V2 no. of cells In 1/1OOO (protein code No. 175, proteins 1-18 binary 101100011101011000) | V2 no. of cells In 1/1OOO (protein code No. 176, proteins 1-18 binary 101000010011001000) | V2 no. of cells In 1/1OOO (protein code No. 177, proteins 1-18 binary 100000000000001000) | V2 no. of cells In 1/1OOO (protein code No. 178, proteins 1-18 binary 000100010101011000) | V2 no. of cells In 1/1OOO (protein code No. 179, proteins 1-18 binary 000000001101001000) | V2 no. of cells In 1/1OOO (protein code No. 187, proteins 1-18 binary 111000001100001000) | V2 no. of cells In 1/1OOO (protein code No. 188, proteins 1-18 binary 101000110111011100) | V2 no. of cells In 1/1OOO (protein code No. 189, proteins 1-18 binary 011100011100001100) | V2 no. of cells In 1/1OOO (protein code No. 190, proteins 1-18 binary 011100011001001000) | V2 no. of cells In 1/1OOO (protein code No. 191, proteins 1-18 binary 010000001111001000) | V2 no. of cells In 1/1OOO (protein code No. 192, proteins 1-18 binary 001100011111011100) | V2 no. of cells In 1/1OOO (protein code No. 193, proteins 1-18 binary 001100010011000000) | V2 no. of cells In 1/1OOO (protein code No. 194, proteins 1-18 binary 001000110011011000) | V2 no. of cells In 1/1OOO (protein code No. 195, proteins 1-18 binary 001000010011001100) | V2 no. of cells In 1/1OOO (protein code No. 198 (first line so numbered, r203), proteins 1-18 binary 001000010010000000)
0.2 1/1OOO: V2 no. of cells In 1/1OOO (protein code No. 151, proteins 1-18 binary 011000001101001000) | V2 no. of cells In 1/1OOO (protein code No. 152, proteins 1-18 binary 010000011101001000) | V2 no. of cells In 1/1OOO (protein code No. 153, proteins 1-18 binary 001100010111011100) | V2 no. of cells In 1/1OOO (protein code No. 154, proteins 1-18 binary 000000001000001000) | V2 no. of cells In 1/1OOO (protein code No. 162 (second line so numbered, r189), proteins 1-18 binary 010000001100011000) | V2 no. of cells In 1/1OOO (protein code No. 166, proteins 1-18 binary 111100111111011100) | V2 no. of cells In 1/1OOO (protein code No. 167, proteins 1-18 binary 111100001100001100) | V2 no. of cells In 1/1OOO (protein code No. 168, proteins 1-18 binary 011000011100000000) | V2 no. of cells In 1/1OOO (protein code No. 169, proteins 1-18 binary 001100010000001000) | V2 no. of cells In 1/1OOO (protein code No. 170, proteins 1-18 binary 001100000001001000) | V2 no. of cells In 1/1OOO (protein code No. 171, proteins 1-18 binary 001000011000000000) | V2 no. of cells In 1/1OOO (protein code No. 172, proteins 1-18 binary 000000010001011000) | V2 no. of cells In 1/1OOO (protein code No. 180, proteins 1-18 binary 111100011111011000) | V2 no. of cells In 1/1OOO (protein code No. 181, proteins 1-18 binary 101100110101011000) | V2 no. of cells In 1/1OOO (protein code No. 183, proteins 1-18 binary 001100010100001000) | V2 no. of cells In 1/1OOO (protein code No. 184, proteins 1-18 binary 001000011011011000) | V2 no. of cells In 1/1OOO (protein code No. 185, proteins 1-18 binary 001000011011000000) | V2 no. of cells In 1/1OOO (protein code No. 186, proteins 1-18 binary 000000011011000000)
specific blocking of cell polarization: effect of the modification of surface protein combinations on cell polarization (actinonin-treated Karpas cells)
263: number of different surface protein combinations detected in the treated cells (18 of the 30 proteins examined, untreated cells: 334, overall 394)
131: number of surface protein combinations occurring only in untreated Karpas cells, never found in actinonin-treated cells (Table 3, 18 proteins)
0.3 1/1OOO: V2 no. of cells In 1/1OOO (protein code No. 155, proteins 1-18 binary 111000011100011100) | V2 no. of cells In 1/1OOO (protein code No. 156, proteins 1-18 binary 010000001101000000) | V2 no. of cells In 1/1OOO (protein code No. 157, proteins 1-18 binary 001000010001000100) | V2 no. of cells In 1/1OOO (protein code No. 173, proteins 1-18 binary 011100011100011100)
60: number of surface protein combinations occurring exclusively in the actinonin-treated Karpas cells (Table 4, 18 proteins)
0.5 1/1OOO: V2 no. of cells In 1/1OOO (protein code No. 158, proteins 1-18 binary 100100000000001000) | V2 no. of cells In 1/1OOO (protein code No. 159, proteins 1-18 binary 010000011001000000) | V2 no. of cells In 1/1OOO (protein code No. 160, proteins 1-18 binary 001000010101011100) | V2 no. of cells In 1/1OOO (protein code No. 161, proteins 1-18 binary 000000011001001000)
203: number of surface protein combinations present both in actinonin-treated and untreated cells (Table 2, 18 proteins)
